Several values for one entry are separate records, joined by “and”; a condition that tells them apart may be missing. Identical values can stand only once.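 Test compounds were applied to cells in 96-well plates for 48 hours at 5 doses. At the GI50, growth is halved. The concentration for full growth arrest is given as TGI.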
These compounds were tested on KM12 colon (assay: NCI anticancer screen, dose series, 48 h).
With `Cc1nn(-c2ccccc2)c2c1C(c1cc3ccccc3nc1Cl)NC(=O)N2` (stereo unspecified) the TGI was 53.1 µM.
`Cc1cc(/N=C/c2ccc(N(C)C)cc2)n(-c2ccccc2)n1` showed a TGI greater than 100 µM.
`O=C(/C=C/c1ccccc1)Oc1ccc(C(=O)/C=C/c2ccccc2)cc1` was tested, and the TGI was 15.9 µM.
For `CCOC(=O)N1CCC(N[C@@H]2c3cc4c(cc3C(c3cc(OC)c(O)c(OC)c3)C3C(=O)OC[C@@H]32)OCO4)CC1` (stereo partly specified), the TGI was 9.2 µM and 7.56 µM.
For `NS(=O)(=O)c1ccc(NC(=S)/N=C/C2=C(O)c3ccccc3C2=O)cc1`, the TGI was greater than 100 µM.
With `O=C1NC2c3c(I)sc(I)c3C(O)C2O1` (stereo unspecified) the TGI was greater than 100 µM.
Compound `CNc1cc2c(c3ccccc13)C(CCl)CN2C(=O)c1cc2cc(OC)c(OC)c(OC)c2[nH]1` (stereo unspecified) has a TGI of 0.103 µM.
With `NCCCN1c2ccccc2Sc2ccc(Cl)cc21` the TGI was greater than 6.37 µM.
Compound `CCOC(=O)c1cccc(N=Nc2nc[nH]c2/C=C/C(=O)OC)c1` has a TGI greater than 100 µM.
`O=C(O)CN1CCN2CCCCCN(CC1)CCN(CC(=O)O)CC2` gave a TGI greater than 100 µM.
In the case of `Cc1cccc(C)c1NC(=O)C(Cc1c[nH]c2ccccc12)NC(=O)OCc1ccccc1` (stereo unspecified), the TGI is reported as 57 µM.
`Clc1ccc(-c2nnc3sc4nc5ccccc5c-4nn23)c(Cl)c1` was tested, and the TGI was greater than 100 µM.
`N#CC(C#N)=C1SC(=Nc2ccccc2)C(=Nc2ccccc2)N1c1ccccc1` was tested, and the TGI was greater than 53.8 µM.
For `Cc1ccc(C2=CC(=O)OC(C[P+](c3ccccc3)(c3ccccc3)c3ccccc3)(c3ccccc3)O2)cc1` (stereo unspecified), the TGI was 34.3 µM.
For `Cc1ccc(S(=O)(=O)n2c3c(c4ccccc42)CCN2C[C@H]([C@H](C)Br)CC[C@@H]32)cc1`, the TGI was greater than 100 µM.
Work on `C[n+]1c(/C=C/c2c(O)ccc3ccccc23)ccc2ccccc21` yielded a GI50 of 4.33 µM and a TGI of 11.2 µM.
For `O=C1c2cc(-c3ccccc3)cnc2S(=O)(=O)N1c1ccc(Br)cc1`, the TGI was greater than 100 µM.
In the case of `O=C(NCP(=O)(Oc1ccccc1)Oc1ccccc1)OCc1ccccc1`, the TGI is reported as greater than 100 µM.
`COC1=CC(=O)c2c(c(-c3nc(C)cs3)cn2C)C1=O` showed a TGI of 26.7 µM.
Work on `C=CCn1c(=O)c(C(=O)Nc2nc(C34CC5CC(CC(C5)C3)C4)cs2)c(O)c2ccccc21` yielded a TGI greater than 100 µM.
`C=CCc1cc(-c2nc(=S)[nH][nH]2)ccc1N=NNc1ccc(C(=O)O)cc1` gave a TGI greater than 100 µM.
`CC(C)SC(=S)Sc1c(Cl)c(Cl)nc(Cl)c1Cl` gave a TGI of 21.4 µM.
`O=C(O)CN1CCNCCN(CC(=O)O)CCN(CC(=O)O)CCNCC1` gave a TGI greater than 100 µM.

Each compound was assayed on HCT-116 colon (assay: NCI anticancer screen, dose series, 48 h).
In the case of `CCN1CN(c2ccccc2)C2(CCN(CC3COc4ccccc4O3)CC2)C1=O` (stereo unspecified), the TGI is reported as 43.7 µM.
`C=C1C(=O)CC2C1CC(=O)/C(C)=C/CCC(C)(O)C2O` (stereo unspecified) showed a TGI of 6.92 µM.
`C[C@H](CCC(=O)O)[C@H]1CC[C@H]2[C@@H]3C(=O)C[C@@H]4C[C@H](O)CC[C@]4(C)[C@H]3C[C@H](O)[C@]12C` was tested, and the TGI was greater than 100 µM.
Work on `CC(=O)NC1C(OCc2ccccc2)OC(CO)C(O)C1OCC(=O)N[C@@H](C)C(=O)N[C@H](CCC(=O)NCCCNc1c2ccccc2nc2cccc([N+](=O)[O-])c12)C(N)=O` (stereo partly specified) yielded a TGI of 0.034 µM.
`O=C(O)c1ccccc1CC(Cc1ccc2c(c1)CCC2)C(=O)O` (stereo unspecified) showed a TGI greater than 100 µM.
For `Cn1c(SCc2ccc(F)cc2)nnc1C12CC3CC(CC(C3)C1)C2`, the TGI was greater than 100 µM.
Work on `COC(=O)/C=C\C(C#N)(C#N)N=Cc1ccc(C)cc1` yielded a TGI of 3.57 µM.
Compound `CC(c1ccccc1)N1CCN(C(C)c2ccccc2)CC1` (stereo unspecified) has a TGI greater than 100 µM.
Work on `COc1ccc(C(=O)/C=C/c2ccc(OCCCOc3ccc(/C=C/C(=O)c4ccc(OC)cc4)cc3)cc2)cc1` yielded a TGI greater than 100 µM.
Compound `O=C(O)COc1ccccc1C(=O)Nc1ccccc1` has a TGI greater than 100 µM.
Compound `COc1ccc(N2C(=O)CC(=O)N(NC(=O)C(C)Oc3ccccc3C)C2=S)cc1` (stereo unspecified) has a TGI greater than 100 µM.
Work on `COc1ccc(C2c3cn[nH]c3CC3CCCCC32)cc1` (stereo unspecified) yielded a TGI of 31.7 µM.
In the case of `C/C(=N\N=C1/C(=O)OC(c2ccccc2)=C1C(=O)c1ccccc1)c1ccc([N+](=O)[O-])cc1`, the TGI is reported as greater than 100 µM.
`O=S(=O)(O)C(CO)c1ccccc1` (stereo unspecified) (tested in a mixture with another compound) gave a TGI greater than 100 µM.
With `O=C1CC2(CCC(O)(c3ccc4ccccc4c3)C(C(=O)c3ccc4ccccc4c3)C2)C(=O)c2ccccc2N1` (stereo unspecified) the TGI was greater than 100 µM.
For `Cc1nc(C)c(N2CCN([N+](=O)[O-])CC2)c(=O)[nH]1`, the TGI was greater than 100 µM.
Work on `Cc1nn(-c2ccccc2)c2c1C(c1cc3ccccc3nc1Cl)NC(=O)N2` (stereo unspecified) yielded a TGI of 84.6 µM.
For `Cc1cc(/N=C/c2ccc(N(C)C)cc2)n(-c2ccccc2)n1`, the TGI was greater than 100 µM.
Compound `O=C(/C=C/c1ccccc1)Oc1ccc(C(=O)/C=C/c2ccccc2)cc1` has a TGI of 14.6 µM.
In the case of `CCOC(=O)N1CCC(N[C@@H]2c3cc4c(cc3C(c3cc(OC)c(O)c(OC)c3)C3C(=O)OC[C@@H]32)OCO4)CC1` (stereo partly specified), the TGI is reported as 22.3 µM and 11 µM.
`NS(=O)(=O)c1ccc(NC(=S)/N=C/C2=C(O)c3ccccc3C2=O)cc1` gave a TGI greater than 100 µM.
`O=C1NC2c3c(I)sc(I)c3C(O)C2O1` (stereo unspecified) showed a TGI greater than 100 µM.
With `NCCCN1c2ccccc2Sc2ccc(Cl)cc21` the TGI was 7.03 µM.
Work on `CCOC(=O)c1cccc(N=Nc2nc[nH]c2/C=C/C(=O)OC)c1` yielded a TGI greater than 100 µM.
`O=C(O)CN1CCN2CCCCCN(CC1)CCN(CC(=O)O)CC2` showed a TGI greater than 100 µM.
Work on `Cc1cccc(C)c1NC(=O)C(Cc1c[nH]c2ccccc12)NC(=O)OCc1ccccc1` (stereo unspecified) yielded a TGI greater than 100 µM.
Work on `Clc1ccc(-c2nnc3sc4nc5ccccc5c-4nn23)c(Cl)c1` yielded a TGI greater than 100 µM.
`N#CC(C#N)=C1SC(=Nc2ccccc2)C(=Nc2ccccc2)N1c1ccccc1` was tested, and the TGI was 32.7 µM.
In the case of `Cc1ccc(C2=CC(=O)OC(C[P+](c3ccccc3)(c3ccccc3)c3ccccc3)(c3ccccc3)O2)cc1` (stereo unspecified), the TGI is reported as 29.2 µM.
Work on `O=c1oc2cc(O)ccc2c(O)c1C(c1ccccc1)c1c(O)c2ccc(O)cc2oc1=O` yielded a TGI greater than 100 µM.
With `C[n+]1c(/C=C/c2c(O)ccc3ccccc23)ccc2ccccc21` the GI50 was 3.06 µM and the TGI was 10.3 µM.
`O=C1c2cc(-c3ccccc3)cnc2S(=O)(=O)N1c1ccc(Br)cc1` showed a TGI greater than 100 µM.
In the case of `COC1=CC(=O)c2c(c(-c3nc(C)cs3)cn2C)C1=O`, the TGI is reported as 30.8 µM.
In the case of `C=CCn1c(=O)c(C(=O)Nc2nc(C34CC5CC(CC(C5)C3)C4)cs2)c(O)c2ccccc21`, the TGI is reported as greater than 100 µM.
Work on `C=CCc1cc(-c2nc(=S)[nH][nH]2)ccc1N=NNc1ccc(C(=O)O)cc1` yielded a TGI greater than 100 µM.
`CC(C)SC(=S)Sc1c(Cl)c(Cl)nc(Cl)c1Cl` showed a TGI of 22.4 µM.
For `O=C(O)CN1CCNCCN(CC(=O)O)CCN(CC(=O)O)CCNCC1`, the TGI was greater than 100 µM.

What follows are compounds tested on MOLT-4 leukemia (assay: NCI anticancer screen, dose series, 48 h).
`CCN1CN(c2ccccc2)C2(CCN(CC3COc4ccccc4O3)CC2)C1=O` (stereo unspecified) gave a TGI of 57.6 µM.
With `C=C1C(=O)CC2C1CC(=O)/C(C)=C/CCC(C)(O)C2O` (stereo unspecified) the TGI was 6.2 µM.
`O=C1C=C/C(=N\N=C(c2ccccc2)c2ccccc2)O1` was tested, and the TGI was greater than 10 µM.
With `C[C@H](CCC(=O)O)[C@H]1CC[C@H]2[C@@H]3C(=O)C[C@@H]4C[C@H](O)CC[C@]4(C)[C@H]3C[C@H](O)[C@]12C` the TGI was greater than 100 µM.
For `CC(=O)NC1C(OCc2ccccc2)OC(CO)C(O)C1OCC(=O)N[C@@H](C)C(=O)N[C@H](CCC(=O)NCCCNc1c2ccccc2nc2cccc([N+](=O)[O-])c12)C(N)=O` (stereo partly specified), the TGI was 11 µM.
In the case of `O=C(O)c1ccccc1CC(Cc1ccc2c(c1)CCC2)C(=O)O` (stereo unspecified), the TGI is reported as greater than 100 µM.
`Cn1c(SCc2ccc(F)cc2)nnc1C12CC3CC(CC(C3)C1)C2` was tested, and the TGI was 57.1 µM.
`COC(=O)/C=C\C(C#N)(C#N)N=Cc1ccc(C)cc1` gave a TGI of 3.77 µM.
Work on `CC(c1ccccc1)N1CCN(C(C)c2ccccc2)CC1` (stereo unspecified) yielded a TGI greater than 100 µM.
For `COc1ccc(C(=O)/C=C/c2ccc(OCCCOc3ccc(/C=C/C(=O)c4ccc(OC)cc4)cc3)cc2)cc1`, the TGI was greater than 100 µM.
Work on `O=C(O)COc1ccccc1C(=O)Nc1ccccc1` yielded a TGI greater than 100 µM.
Work on `COc1ccc(N2C(=O)CC(=O)N(NC(=O)C(C)Oc3ccccc3C)C2=S)cc1` (stereo unspecified) yielded a TGI greater than 100 µM.
With `COc1ccc(C2c3cn[nH]c3CC3CCCCC32)cc1` (stereo unspecified) the TGI was 46.1 µM.
With `C/C(=N\N=C1/C(=O)OC(c2ccccc2)=C1C(=O)c1ccccc1)c1ccc([N+](=O)[O-])cc1` the TGI was 52.7 µM.
Work on `O=S(=O)(O)C(CO)c1ccccc1` (stereo unspecified) (tested in a mixture with another compound) yielded a TGI greater than 100 µM.
With `O=C1CC2(CCC(O)(c3ccc4ccccc4c3)C(C(=O)c3ccc4ccccc4c3)C2)C(=O)c2ccccc2N1` (stereo unspecified) the TGI was greater than 100 µM.
`Cc1nc(C)c(N2CCN([N+](=O)[O-])CC2)c(=O)[nH]1` was tested, and the TGI was greater than 100 µM.
In the case of `Cc1cc(/N=C/c2ccc(N(C)C)cc2)n(-c2ccccc2)n1`, the TGI is reported as greater than 100 µM.
In the case of `O=C(/C=C/c1ccccc1)Oc1ccc(C(=O)/C=C/c2ccccc2)cc1`, the TGI is reported as 16.8 µM.
For `NS(=O)(=O)c1ccc(NC(=S)/N=C/C2=C(O)c3ccccc3C2=O)cc1`, the TGI was greater than 100 µM.
With `O=C1NC2c3c(I)sc(I)c3C(O)C2O1` (stereo unspecified) the TGI was greater than 100 µM.
`CNc1cc2c(c3ccccc13)C(CCl)CN2C(=O)c1cc2cc(OC)c(OC)c(OC)c2[nH]1` (stereo unspecified) was tested, and the TGI was 0.023 µM.
`NCCCN1c2ccccc2Sc2ccc(Cl)cc21` was tested, and the TGI was greater than 10 µM.
`CCOC(=O)c1cccc(N=Nc2nc[nH]c2/C=C/C(=O)OC)c1` gave a TGI of 40.2 µM.
`Cc1cccc(C)c1NC(=O)C(Cc1c[nH]c2ccccc12)NC(=O)OCc1ccccc1` (stereo unspecified) showed a TGI of 63.7 µM.
For `Clc1ccc(-c2nnc3sc4nc5ccccc5c-4nn23)c(Cl)c1`, the TGI was greater than 100 µM.
`N#CC(C#N)=C1SC(=Nc2ccccc2)C(=Nc2ccccc2)N1c1ccccc1` gave a TGI of 11.8 µM.
`Cc1ccc(C2=CC(=O)OC(C[P+](c3ccccc3)(c3ccccc3)c3ccccc3)(c3ccccc3)O2)cc1` (stereo unspecified) showed a TGI of 67 µM.
`Cc1ccc(S(=O)(=O)n2c3c(c4ccccc42)CCN2C[C@H]([C@H](C)Br)CC[C@@H]32)cc1` was tested, and the TGI was greater than 100 µM.
Compound `O=c1oc2cc(O)ccc2c(O)c1C(c1ccccc1)c1c(O)c2ccc(O)cc2oc1=O` has a TGI greater than 100 µM.
`C[n+]1c(/C=C/c2c(O)ccc3ccccc23)ccc2ccccc21` was tested, and the GI50 was 7.01 µM and the TGI was 23.4 µM.
In the case of `O=C1c2cc(-c3ccccc3)cnc2S(=O)(=O)N1c1ccc(Br)cc1`, the TGI is reported as greater than 100 µM.
Work on `O=C(NCP(=O)(Oc1ccccc1)Oc1ccccc1)OCc1ccccc1` yielded a TGI greater than 100 µM.
`COC1=CC(=O)c2c(c(-c3nc(C)cs3)cn2C)C1=O` showed a TGI greater than 80.9 µM.
For `C=CCn1c(=O)c(C(=O)Nc2nc(C34CC5CC(CC(C5)C3)C4)cs2)c(O)c2ccccc21`, the TGI was greater than 100 µM.
Work on `C=CCc1cc(-c2nc(=S)[nH][nH]2)ccc1N=NNc1ccc(C(=O)O)cc1` yielded a TGI greater than 100 µM.
`CC(C)SC(=S)Sc1c(Cl)c(Cl)nc(Cl)c1Cl` showed a TGI of 8.69 µM.
`O=C(O)CN1CCNCCN(CC(=O)O)CCN(CC(=O)O)CCNCC1` showed a TGI greater than 100 µM.
